Reference: US12570655B2, “Cysteine covalent modifiers of AKT1 and uses thereof” (Terremoto Biosciences, Inc., priority 2023, dated 2026)
pIC50: −log10 of the molar value.

Experiments:
Type in all cases: cell-based
AKT1 WT = target: T1, AKT1 WT (Homo sapiens, UniProt P31749); assay: Live cell AKT1 WT target engagement by NanoBRET competitive probe displacement; conditions: HEK293 cells transfected with kinase-NanoLuciferase fusion, 2 h at 37° C.
T1 construct: expressed in transfected cells; host or cells: HEK293
Procedure, shortened: (§1)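 IC50 fitted (Hill, log inhibitor vs response) to BRET signal, E600/E460 ratio, measured with extracellular NanoLuc inhibitor present. Intact transfected HEK293 cells bearing NanoLuc-tagged kinase were co-incubated 2 h, 37 °C, with compound dilution series and ~EC50 ATP-competitive fluorescent tracer.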

AKT1 E17K = target: T2, AKT1 E17K (Homo sapiens, UniProt P31749, E17K); assay: Live cell AKT1 E17K target engagement by NanoBRET competitive probe displacement; conditions: HEK293 cells transfected with kinase-NanoLuciferase fusion, 2 h at 37° C.
T2 construct: expressed in transfected cells; host or cells: HEK293
Procedure, shortened: as §1

AKT2 = target: T3, AKT2 (Homo sapiens, UniProt P31751); assay: Live cell AKT2 target engagement by NanoBRET competitive probe displacement; conditions: HEK293 cells transfected with kinase-NanoLuciferase fusion, 2 h at 37° C.
T3 construct: expressed in transfected cells; host or cells: HEK293
Procedure, shortened: as §1

[1] = test system: LAPC4 prostate cancer cells; assay: Antiproliferative effects in LAPC4 cells (CellTiter Glo); conditions: Homo sapiens, LAPC4, 72 h, LAPC4 cells (AKT1 E17K allele), read-out: LAPC4 proliferation IC50
Procedure, shortened: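 Growth inhibition was measured by CellTiter Glo ATP luminescence after 72 h compound exposure of 1,000 seeded cells/well. The cells were AKT1 E17K-expressing LAPC4 prostate cancer cells maintained in IMDM plus 12% FBS. IC50 values came from Hill-equation fits.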

T1 sequence (P31749 whole entry, the tested form may be a part): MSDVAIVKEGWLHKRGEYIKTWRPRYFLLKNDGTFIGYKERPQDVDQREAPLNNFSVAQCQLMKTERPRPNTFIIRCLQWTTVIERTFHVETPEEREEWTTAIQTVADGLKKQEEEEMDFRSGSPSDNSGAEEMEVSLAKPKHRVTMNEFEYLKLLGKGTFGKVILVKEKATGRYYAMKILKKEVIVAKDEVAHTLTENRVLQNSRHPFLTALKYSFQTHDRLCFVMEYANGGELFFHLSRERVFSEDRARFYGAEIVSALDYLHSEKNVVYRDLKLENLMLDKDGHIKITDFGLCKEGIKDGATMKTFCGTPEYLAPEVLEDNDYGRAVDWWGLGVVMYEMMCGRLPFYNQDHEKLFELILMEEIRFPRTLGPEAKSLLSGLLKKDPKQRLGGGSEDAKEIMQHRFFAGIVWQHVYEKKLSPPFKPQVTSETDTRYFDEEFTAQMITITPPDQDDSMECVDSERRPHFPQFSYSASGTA
T3 sequence (P31751 whole entry, the tested form may be a part): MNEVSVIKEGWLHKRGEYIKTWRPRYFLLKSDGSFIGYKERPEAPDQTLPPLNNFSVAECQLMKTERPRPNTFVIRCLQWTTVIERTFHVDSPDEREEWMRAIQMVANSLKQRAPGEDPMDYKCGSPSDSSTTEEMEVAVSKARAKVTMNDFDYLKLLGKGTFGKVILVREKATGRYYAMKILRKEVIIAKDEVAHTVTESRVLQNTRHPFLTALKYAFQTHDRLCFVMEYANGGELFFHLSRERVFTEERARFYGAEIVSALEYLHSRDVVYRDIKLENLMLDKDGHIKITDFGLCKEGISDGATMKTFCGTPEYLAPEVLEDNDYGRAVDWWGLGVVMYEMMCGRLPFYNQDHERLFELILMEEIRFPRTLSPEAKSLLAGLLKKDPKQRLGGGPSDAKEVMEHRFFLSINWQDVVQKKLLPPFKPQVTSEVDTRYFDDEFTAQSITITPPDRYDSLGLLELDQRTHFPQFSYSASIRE
T2 sequence (P31749 whole entry E17K, the tested form may be a part): as the sequence (P31749 whole entry, the tested form may be a part) above, with E17K counted along it

SMILES	pIC50 (AKT1 WT)	pIC50 (AKT1 E17K)	pIC50 (AKT2)	pIC50 [1]
C=CC(=O)N1CCC(C(=O)N[C@H]2CCc3cc(-n4c(-c5cccnc5N)nc5ccc(-n6cccn6)nc54)ccc32)CC1 [Example 29, N-[(1S)-5-[2-(2-aminopyridin-3-yl)-5-(pyrazol-1-yl)imidazo[4,5-b]pyridin-3-yl]-2,3-dihydro-1H-inden-1-yl]-1-(prop-2-enoyl)piperidine-4-carboxamide]	7.30	7.09	6.60	6.67
C=CC(=O)N1CCC2(CC1)CC(N[C@H]1CCc3cc(-n4c(-c5cccnc5N)nc5ccc(-n6cccn6)nc54)ccc31)C2 [Example 30, 1-(2-{[(1S)-5-[2-(2-aminopyridin-3-yl)-5-(pyrazol-1-yl)imidazo[4,5-b]pyridin-3-yl]-2,3-dihydro-1H-inden-1-yl]amino}-7-azaspiro[3.5]nonan-7-yl)prop-2-en-1-one]	6.53	< 6.00	5.32	5.59
C=CC(=O)N1CC2(CC(N[C@H]3CCc4cc(-n5c(-c6cccnc6N)nc6ccc(-n7cccn7)nc65)ccc43)C2)C1 [Example 31, 1-(6-{[(1S)-5-[2-(2-aminopyridin-3-yl)-5-(pyrazol-1-yl)imidazo[4,5-b]pyridin-3-yl]-2,3-dihydro-1H-inden-1-yl]amino}-2-azaspiro[3.3]heptan-2-yl)prop-2-en-1-one]	7.89	7.90	7.24	7.51
C=CC(=O)N1CC2(CCC(N[C@H]3CCc4cc(-n5c(-c6cccnc6N)nc6ccc(-n7cccn7)nc65)ccc43)CC2)C1 [Example 32, 1-(7-{[(1S)-5-[2-(2-aminopyridin-3-yl)-5-(pyrazol-1-yl)imidazo[4,5-b]pyridin-3-yl]-2,3-dihydro-1H-inden-1-yl]amino}-2-azaspiro[3.5]nonan-2-yl)prop-2-en-1-one]	7.88	8.00	7.38	7.85
C=CC(=O)N1CCC(N[C@H]2CCc3cc(-n4c(-c5cccnc5N)nc5ccc(-n6nccn6)nc54)ccc32)CC1 [Example 33, 1-(4-{[(1S)-5-[2-(2-aminopyridin-3-yl)-5-(1,2,3-triazol-2-yl)imidazo[4,5-b]pyridin-3-yl]-2,3-dihydro-1H-inden-1-yl]amino}piperidin-1-yl)prop-2-en-1-one]	7.67	7.68	6.82	7.28
CN(C)C/C=C/C(=O)N1CCC(N[C@H]2CCc3cc(-n4c(-c5cccnc5N)nc5ccc(-n6cccn6)nc54)ccc32)CC1 [Example 34, (2E)-1-(4-{[(1S)-5-[2-(2-aminopyridin-3-yl)-5-(pyrazol-1-yl)imidazo[4,5-b]pyridin-3-yl]-2,3-dihydro-1H-inden-1-yl]amino}piperidin-1-yl)-4-(dimethylamino)but-2-en-1-one]	7.26	6.71	5.92	6.40
C=C(F)C(=O)Nc1cnn(C)c1C(=O)N[C@H]1CCc2cc(-n3c(-c4cccnc4N)nc4ccc(-n5cccn5)nc43)ccc21 [Example 35, (S)-N-(5-(2-(2-aminopyridin-3-yl)-5-(1H-pyrazol-1-yl)-3H-imidazo[4,5-b]pyridin-3-yl)-2,3-dihydro-1H-inden-1-yl)-4-(2-fluoroacrylamido)-1-methyl-1H-pyrazole-5-carboxamide]	6.61	< 6.00	5.53	5.25
C=C(F)C(=O)Nc1cn(C)nc1C(=O)N[C@H]1CCc2cc(-n3c(-c4cccnc4N)nc4ccc(-n5cccn5)nc43)ccc21 [Example 36, (S)-N-(5-(2-(2-aminopyridin-3-yl)-5-(1H-pyrazol-1-yl)-3H-imidazo[4,5-b]pyridin-3-yl)-2,3-dihydro-1H-inden-1-yl)-4-(2-fluoroacrylamido)-1-methyl-1H-pyrazole-3-carboxamide]	7.19	6.75	6.01	6.27
Nc1ncccc1-c1nc2ccc(-n3cccn3)nc2n1-c1ccc2c(c1)CC[C@@H]2NC(=O)c1ccccc1NC(=O)C1=CCCC1 [Example 37, (S)-N-(5-(2-(2-aminopyridin-3-yl)-5-(1H-pyrazol-1-yl)-3H-imidazo[4,5-b]pyridin-3-yl)-2,3-dihydro-1H-inden-1-yl)-2-(cyclopent-1-ene-1-carboxamido)benzamide]	7.03	6.61	6.13	6.24
C=C(Cl)C(=O)Nc1ccccc1C(=O)N[C@H]1CCc2cc(-n3c(-c4cccnc4N)nc4ccc(-n5cccn5)nc43)ccc21 [Example 38, (S)-N-(5-(2-(2-aminopyridin-3-yl)-5-(1H-pyrazol-1-yl)-3H-imidazo[4,5-b]pyridin-3-yl)-2,3-dihydro-1H-inden-1-yl)-2-(2-chloroacrylamido)benzamide]	6.69	6.06	5.68	< 5.00
C=CC(=O)Nc1ccccc1CN[C@H]1CCc2cc(-n3c(-c4cccnc4N)nc4ccc(-n5cccn5)nc43)ccc21 [Example 39, N-[2-({[(1S)-5-[2-(2-aminopyridin-3-yl)-5-(pyrazol-1-yl)imidazo[4,5-b]pyridin-3-yl]-2,3-dihydro-1H-inden-1-yl]amino}methyl)phenyl]prop-2-enamide]	7.19	7.02	7.02	5.80
C=CC(=O)N1CCCc2cccc(C(=O)N[C@H]3CCc4cc(-n5c(-c6cccnc6N)nc6ccc(-n7cccn7)nc65)ccc43)c21 [Example 40, N-[(1S)-5-[2-(2-aminopyridin-3-yl)-5-(pyrazol-1-yl)imidazo[4,5-b]pyridin-3-yl]-2,3-dihydro-1H-inden-1-yl]-1-(prop-2-enoyl)-3,4-dihydro-2H-quinoline-8-carboxamide]	7.32	7.03	6.58	6.02
C=CC(=O)Nc1cnccc1C(=O)N[C@H]1CCc2cc(-n3c(-c4cccnc4N)nc4ccc(-n5cccn5)nc43)ccc21 [Example 41, N-[(1S)-5-[2-(2-aminopyridin-3-yl)-5-(pyrazol-1-yl)imidazo[4,5-b]pyridin-3-yl]-2,3-dihydro-1H-inden-1-yl]-3-(prop-2-enamido)pyridine-4-carboxamide]	6.52	< 6.00	5.30	5.01
C=C1CCN(c2ccccc2C(=O)N[C@H]2CCc3cc(-n4c(-c5cccnc5N)nc5ccc(-n6cccn6)nc54)ccc32)C1=O [Example 42, (S)-N-(5-(2-(2-aminopyridin-3-yl)-5-(1H-pyrazol-1-yl)-3H-imidazo[4,5-b]pyridin-3-yl)-2,3-dihydro-1H-inden-1-yl)-2-(3-methylene-2-oxopyrrolidin-1-yl)benzamide]	6.54	6.05	6.60	5.44
C=CC(=O)Nc1cc(C(F)F)ccc1C(=O)N[C@H]1CCc2cc(-n3c(-c4cccnc4N)nc4ccc(-n5cccn5)nc43)ccc21 [Example 43, (S)-2-acrylamido-N-(5-(2-(2-aminopyridin-3-yl)-5-(1H-pyrazol-1-yl)-3H-imidazo[4,5-b]pyridin-3-yl)-2,3-dihydro-1H-inden-1-yl)-4-(difluoromethyl)benzamide]	6.50	< 6.00	< 5.00	< 5.00
C=CC(=O)Nc1c(F)cccc1C(=O)N[C@H]1CCc2cc(-n3c(-c4cccnc4N)nc4ccc(-n5cccn5)nc43)ccc21 [Example 44, N-[(1S)-5-[2-(2-aminopyridin-3-yl)-5-(pyrazol-1-yl)imidazo[4,5-b]pyridin-3-yl]-2,3-dihydro-1H-inden-1-yl]-3-fluoro-2-(prop-2-enamido)benzamide]	7.46	7.31	6.99	6.91
NC(=O)/C=C/c1ncccc1C(=O)N[C@H]1CCc2cc(-n3c(-c4cccnc4N)nc4ccc(-n5cccn5)nc43)ccc21 [Example 45, N-[(1S)-5-[2-(2-aminopyridin-3-yl)-5-(pyrazol-1-yl)imidazo[4,5-b]pyridin-3-yl]-2,3-dihydro-1H-inden-1-yl]-2-[(1E)-2-carbamoyleth-1-en-1-yl]pyridine-3-carboxamide]	7.37	7.16	6.14	6.53
C=CC(=O)N1CCC(N[C@H]2CCc3cc(-n4c(-c5cccnc5N)nc5ccc(-n6ccc(F)n6)nc54)ccc32)CC1 [Example 49, (S)-1-(4-((5-(2-(2-aminopyridin-3-yl)-5-(3-fluoro-1H-pyrazol-1-yl)-3H-imidazo[4,5-b]pyridin-3-yl)-2,3-dihydro-1H-inden-1-yl)amino)piperidin-1-yl)prop-2-en-1-one]	7.29	6.84	6.01	6.39
C=CC(=O)N1CCC(N[C@H]2CCc3cc(-n4c(-c5cccnc5N)nc5ccc(C)nc54)ccc32)CC1 [Example 50, (S)-1-(4-((5-(2-(2-aminopyridin-3-yl)-5-methyl-3H-imidazo[4,5-b]pyridin-3-yl)-2,3-dihydro-1H-inden-1-yl)amino)piperidin-1-yl)prop-2-en-1-one]	7.75	7.02	6.46	6.79
N#CN1CCC(N[C@H]2CCc3cc(-n4c(-c5cccnc5N)nc5ccc(-n6cccn6)nc54)ccc32)CC1 [Example 51, 4-{[(1S)-5-[2-(2-aminopyridin-3-yl)-5-(pyrazol-1-yl)imidazo[4,5-b]pyridin-3-yl]-2,3-dihydro-1H-inden-1-yl]amino}piperidine-1-carbonitrile]	6.94	6.14	5.25	5.84
